From ChEMBL document CHEMBL1201862, “PubChem BioAssay data set” (2004)
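In this assay, cells in 96-well plates receive the compound at five concentrations for 48 hours. Endpoints are linearly interpolated between the surrounding concentrations. GI50 = concentration required for 50% inhibition of growth.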 Active and inactive are the calls of the source. Rule as the data show it: active = GI50 up to about 1.1 µM and inactive = higher.

Columns and labels:
Test in all cases: NCI tumour cell line growth inhibition, 48 h
786-0 = tested on: 786-0
BT-549 = tested on: BT-549
CAKI-1 = tested on: CAKI-1
HCT-15 = tested on: HCT-15
HL-60 = tested on: HL-60
HT-29 = tested on: HT-29
LOX IMVI = tested on: LOX IMVI
M14 = tested on: M14
MCF7 = tested on: MCF7
MOLT-4 = tested on: MOLT-4
NCI/ADR-RES = tested on: NCI/ADR-RES
SF-268 = tested on: SF-268
SK-MEL-2 = tested on: SK-MEL-2
SNB-78 = tested on: SNB-78
SW-620 = tested on: SW-620
TK-10 = tested on: TK-10
U-251 = tested on: U-251
UO-31 = tested on: UO-31
MDA-N = tested on: MDA-N
PC-3 = tested on: PC-3

Compound	GI50 (786-0)	GI50 (BT-549)	GI50 (CAKI-1)	GI50 (HCT-15)	GI50 (HL-60)	GI50 (HT-29)	GI50 (LOX IMVI)	GI50 (M14)	GI50 (MCF7)	GI50 (MOLT-4)	GI50 (NCI/ADR-RES)	GI50 (SF-268)	GI50 (SK-MEL-2)	GI50 (SNB-78)	GI50 (SW-620)	GI50 (TK-10)	GI50 (U-251)	GI50 (UO-31)	GI50 (MDA-N)	GI50 (PC-3)
CN(C)CCCn1c2c3ccccc3ccc2c2oc(=O)c3ccccc3c21	2.64 µM (inactive)	> 40.6 µM (inactive)	7.76 µM (inactive)	1.57 µM	2.28 µM (inactive)	5.53 µM (inactive)	4.63 µM (inactive)	6.03 µM (inactive)	7.19 µM (inactive)	0.986 µM (active)	10.8 µM (inactive)	5.41 µM (inactive)	9.23 µM (inactive)	13.6 µM (inactive)	2 µM (inactive)	14.2 µM (inactive)	3.26 µM (inactive)	3.44 µM (inactive)		
O=C1NC(=S)NC(=O)C1=C(O)Nc1ccccc1	28.1 µM (inactive)	12.1 µM (inactive)	20.8 µM (inactive)	14.2 µM	28.1 µM (inactive)	47.4 µM (inactive)	23.3 µM (inactive)	36.2 µM (inactive)	19.1 µM (inactive)	10.3 µM (inactive)	30.5 µM (inactive)	32.7 µM (inactive)	35.9 µM (inactive)	44.1 µM (inactive)	29.2 µM (inactive)	53.6 µM (inactive)	27.5 µM (inactive)	26.5 µM (inactive)	30 µM (inactive)	15 µM (inactive)
O=C1/C(=C\c2ccccc2)CN(C(=O)CCN2CCCCC2)C/C1=C/c1ccccc1	1.3 µM (inactive)	0.553 µM (active)	1.71 µM (inactive)	1.09 µM	0.313 µM (active)	0.443 µM (active)	0.283 µM (active)	1.7 µM (inactive)	0.415 µM (active)	0.231 µM (active)		1.78 µM (inactive)	2 µM (inactive)	2.54 µM (inactive)	0.167 µM (active)	3.93 µM (inactive)	0.632 µM (active)	1.91 µM (inactive)	1.19 µM (inactive)	1.24 µM (inactive)
O=C(c1ccco1)N(C(=S)N1CCN(c2ccccn2)CC1)c1ccccc1	> 100 µM (inactive)		> 100 µM (inactive)	> 100 µM	> 100 µM (inactive)	> 100 µM (inactive)	> 100 µM (inactive)	> 100 µM (inactive)		> 100 µM (inactive)		> 100 µM (inactive)	> 100 µM (inactive)	> 100 µM (inactive)	> 100 µM (inactive)	> 100 µM (inactive)	> 100 µM (inactive)	88.7 µM (inactive)		
Cn1c(-c2ccccc2)cc(-c2cccs2)c1-c1cccs1			> 100 µM (inactive)	46.2 µM	54.8 µM (inactive)	51.2 µM (inactive)	52 µM (inactive)		24 µM (inactive)	48.9 µM (inactive)	> 100 µM (inactive)	> 100 µM (inactive)	> 100 µM (inactive)	> 100 µM (inactive)	> 100 µM (inactive)		> 100 µM (inactive)	> 100 µM (inactive)		
COc1ccc(NC(=O)/C(Cc2cc(=O)oc3cc(O)ccc23)=N\NC(C)(C)C)c(OC)c1	> 100 µM (inactive)		> 100 µM (inactive)	> 100 µM	> 100 µM (inactive)	> 100 µM (inactive)	> 100 µM (inactive)	> 100 µM (inactive)		> 100 µM (inactive)		> 100 µM (inactive)	> 100 µM (inactive)	> 100 µM (inactive)	> 100 µM (inactive)	> 100 µM (inactive)	> 100 µM (inactive)	> 100 µM (inactive)		
O=C1c2cccc(NCCNCCO)c2C(=O)c2cccc(NCCNCCO)c21	0.665 µM (active)	2.96 µM (inactive)	0.64 µM (active)	5.28 µM	1.6 µM (inactive)	0.52 µM (active)	0.272 µM (active)	1.81 µM (inactive)	0.39 µM (active)	0.443 µM (active)	10.9 µM (inactive)	0.518 µM (active)	1.28 µM (inactive)	1.52 µM (inactive)	0.714 µM (active)	3.73 µM (inactive)	0.792 µM (active)	4.72 µM (inactive)	0.215 µM (active)	0.733 µM (active)
CC1=C(C(=O)Nc2c(C)cccc2C)C(c2ccccc2Cl)C(C(=O)Nc2c(C)cccc2C)=C(C)N1	> 100 µM (inactive)		> 100 µM (inactive)		> 100 µM (inactive)	> 100 µM (inactive)	> 100 µM (inactive)	> 100 µM (inactive)		> 100 µM (inactive)		> 100 µM (inactive)	> 100 µM (inactive)	> 100 µM (inactive)	> 100 µM (inactive)	> 100 µM (inactive)	> 100 µM (inactive)	> 100 µM (inactive)		
NC1=NN(c2ccccc2)C(=O)C1C(=O)C(=O)Nc1ccccc1 (centres undefined)	> 100 µM (inactive)		> 100 µM (inactive)	> 100 µM	> 100 µM (inactive)	> 100 µM (inactive)	> 100 µM (inactive)	> 100 µM (inactive)		> 100 µM (inactive)		> 100 µM (inactive)	> 100 µM (inactive)	> 100 µM (inactive)	> 100 µM (inactive)	> 100 µM (inactive)	> 100 µM (inactive)	> 100 µM (inactive)		
Cc1ccc(NC(=O)C(=O)CC(=O)c2c(C)[n+]([O-])c3ccccc3[n+]2[O-])cc1C	> 100 µM (inactive)		> 100 µM (inactive)	83.2 µM	> 100 µM (inactive)	> 100 µM (inactive)	> 100 µM (inactive)	74.8 µM (inactive)				> 100 µM (inactive)	> 100 µM (inactive)	> 100 µM (inactive)	49.4 µM (inactive)	> 100 µM (inactive)	> 100 µM (inactive)	> 100 µM (inactive)		
Cc1cc2ncn(-c3nc4ccccc4nc3C(C#N)S(C)(=O)=O)c2cc1C (centres undefined)	> 100 µM (inactive)		> 100 µM (inactive)	> 100 µM	> 100 µM (inactive)		> 100 µM (inactive)	> 100 µM (inactive)		> 100 µM (inactive)		> 100 µM (inactive)	> 100 µM (inactive)	> 100 µM (inactive)	> 100 µM (inactive)	> 100 µM (inactive)	> 100 µM (inactive)	> 100 µM (inactive)		
COC(=O)C1(O)CC(=O)CCC1c1ccc(OC)cc1 (centres undefined)	> 100 µM (inactive)		> 100 µM (inactive)	> 100 µM	> 100 µM (inactive)	> 100 µM (inactive)	> 100 µM (inactive)	> 100 µM (inactive)		> 100 µM (inactive)		> 100 µM (inactive)	> 100 µM (inactive)	> 100 µM (inactive)	> 100 µM (inactive)	> 100 µM (inactive)	> 100 µM (inactive)	> 100 µM (inactive)		
COc1ccc2[nH]c(=O)cc(C)c2c1[N+](=O)[O-]	> 100 µM (inactive)		31.7 µM (inactive)	> 100 µM	> 100 µM (inactive)	> 100 µM (inactive)	> 100 µM (inactive)	> 100 µM (inactive)		> 100 µM (inactive)		82 µM (inactive)	> 100 µM (inactive)	> 100 µM (inactive)	> 100 µM (inactive)	> 100 µM (inactive)	> 100 µM (inactive)	18.3 µM (inactive)		
O=C1c2cccc(NCCCNCCO)c2C(=O)c2cccc(NCCCNCCO)c21	2.08 µM (inactive)	2.05 µM (inactive)		8.99 µM	1.27 µM (inactive)	2.02 µM (inactive)	2.29 µM (inactive)	3.61 µM (inactive)	0.325 µM (active)	0.769 µM (active)	13.7 µM (inactive)		1.85 µM (inactive)	3.46 µM (inactive)	2.4 µM (inactive)	3.85 µM (inactive)		9.59 µM (inactive)	1.71 µM (inactive)	2.41 µM (inactive)
CCN(CC)CCNC(=O)c1ccc([N+](=O)[O-])cc1OC	> 100 µM (inactive)		> 100 µM (inactive)	> 100 µM	> 100 µM (inactive)	> 100 µM (inactive)	> 100 µM (inactive)	> 100 µM (inactive)		> 100 µM (inactive)		> 100 µM (inactive)	> 100 µM (inactive)	> 100 µM (inactive)	> 100 µM (inactive)	> 100 µM (inactive)	> 100 µM (inactive)	> 100 µM (inactive)		
O[C@H]1[C@H](O)[C@@H](O)CN2CC[C@H](O)[C@H]12 [CASTANOSPERMINE]			> 100 µM (inactive)	> 100 µM	> 39.8 µM (inactive)	> 100 µM (inactive)	> 100 µM (inactive)		> 100 µM (inactive)	> 100 µM (inactive)	> 100 µM (inactive)	> 100 µM (inactive)	99.3 µM (inactive)	> 100 µM (inactive)	> 100 µM (inactive)		> 100 µM (inactive)	> 94.4 µM (inactive)		
